Reference: ChEMBL document CHEMBL2440027, “Further SAR studies on bicyclic basic merbarone analogues as potent antiproliferative agents” (Bioorg Med Chem, 2013)

Assays:
Format in all cases: functional
[1] = test system: SK-OV-3; assay: Growth inhibition of human SKOV3 cells assessed as cell growth at 10 uM after 48 hrs by sulforhodamine B assay relative to control; conditions: SK-OV-3, 48 h, read-out: Activity
[2] = test system: BT-549; assay: Growth inhibition of human BT549 cells assessed as cell growth at 10 uM after 48 hrs by sulforhodamine B assay relative to control; conditions: BT-549, 48 h, read-out: Activity
[3] = test system: OVCAR-3; assay: Growth inhibition of human OVCAR3 cells assessed as cell growth at 10 uM after 48 hrs by sulforhodamine B assay relative to control; conditions: OVCAR-3, 48 h, read-out: Activity
[4] = test system: HOP-62; assay: Growth inhibition of human HOP62 cells assessed as cell growth at 10 uM after 48 hrs by sulforhodamine B assay relative to control; conditions: HOP-62, 48 h, read-out: Activity
[5] = test system: A498; assay: Growth inhibition of human A498 cells after 48 hrs by sulforhodamine B assay; conditions: A498, 48 h; for CC50: read-out: LC50 (the source's name)
[6] = test system: DU-145; assay: Growth inhibition of human DU145 cells assessed as cell growth at 10 uM after 48 hrs by sulforhodamine B assay relative to control; conditions: DU-145, 48 h, read-out: Activity
[7] = test system: HOP-62; assay: Growth inhibition of human HOP62 cells after 48 hrs by sulforhodamine B assay; conditions: HOP-62, 48 h
[8] = test system: MDA-MB-231; assay: Growth inhibition of human MDA-MB-231 cells assessed as cell growth at 10 uM after 48 hrs by sulforhodamine B assay relative to control; conditions: MDA-MB-231, 48 h, read-out: Activity
[9] = Growth inhibition of human EKVX cells after 48 hrs by sulforhodamine B assay; conditions: for CC50: read-out: LC50 (the source's name)
[10] = test system: M14; assay: Growth inhibition of human M14 cells after 48 hrs by sulforhodamine B assay; conditions: M14, 48 h; for CC50: read-out: LC50 (the source's name)
[11] = test system: ACHN; assay: Growth inhibition of human ACHN cells after 48 hrs by sulforhodamine B assay
[12] = test system: HOP-92; assay: Growth inhibition of human HOP92 cells after 48 hrs by sulforhodamine B assay; conditions: HOP-92, 48 h
[13] = test system: NCI-H226; assay: Growth inhibition of human NCI-H226 cells assessed as cell growth at 10 uM after 48 hrs by sulforhodamine B assay relative to control; conditions: NCI-H226, 48 h, read-out: Activity
[14] = test system: MOLT-4; assay: Growth inhibition of human MOLT4 cells after 48 hrs by sulforhodamine B assay; conditions: MOLT-4, 48 h
[15] = test system: BT-549; assay: Growth inhibition of human BT549 cells after 48 hrs by sulforhodamine B assay; conditions: BT-549, 48 h; for CC50: read-out: LC50 (the source's name)
[16] = Growth inhibition of human Hs 578T cells assessed as cell growth at 10 uM after 48 hrs by sulforhodamine B assay relative to control; conditions: read-out: Activity
[17] = test system: DU-145; assay: Growth inhibition of human DU145 cells after 48 hrs by sulforhodamine B assay; conditions: DU-145, 48 h; for CC50: read-out: LC50 (the source's name)
[18] = test system: UO-31; assay: Growth inhibition of human UO31 cells assessed as cell growth at 10 uM after 48 hrs by sulforhodamine B assay relative to control; conditions: UO-31, 48 h, read-out: Activity
[19] = test system: NCI-H460; assay: Growth inhibition of human NCI-H460 cells assessed as cell growth at 10 uM after 48 hrs by sulforhodamine B assay relative to control; conditions: NCI-H460, 48 h, read-out: Activity
[20] = test system: HCT-15; assay: Growth inhibition of human HCT15 cells after 48 hrs by sulforhodamine B assay; conditions: HCT-15, 48 h
[21] = test system: SF-539; assay: Growth inhibition of human SF539 cells after 48 hrs by sulforhodamine B assay; conditions: SF-539, 48 h; for CC50: read-out: LC50 (the source's name)
[22] = test system: SK-MEL-28; assay: Growth inhibition of human SK-MEL-28 cells assessed as cell growth at 10 uM after 48 hrs by sulforhodamine B assay relative to control; conditions: SK-MEL-28, 48 h, read-out: Activity
[23] = test system: MDA-MB-468; assay: Growth inhibition of human MDA-MB-468 cells assessed as cell growth at 10 uM after 48 hrs by sulforhodamine B assay relative to control; conditions: MDA-MB-468, 48 h, read-out: Activity
[24] = test system: UACC-62; assay: Growth inhibition of human UACC62 cells assessed as cell growth at 10 uM after 48 hrs by sulforhodamine B assay relative to control; conditions: UACC-62, 48 h, read-out: Activity
[25] = test system: NCI-H322M; assay: Growth inhibition of human NCI-H322M cells after 48 hrs by sulforhodamine B assay; conditions: for CC50: read-out: LC50 (the source's name)
[26] = test system: SK-MEL-2; assay: Growth inhibition of human SK-MEL-2 cells after 48 hrs by sulforhodamine B assay; conditions: SK-MEL-2, 48 h
[27] = test system: SNB-75; assay: Growth inhibition of human SNB75 cells after 48 hrs by sulforhodamine B assay; conditions: SNB-75, 48 h
[28] = test system: OVCAR-3; assay: Growth inhibition of human OVCAR3 cells after 48 hrs by sulforhodamine B assay; conditions: OVCAR-3, 48 h
[29] = test system: SK-MEL-28; assay: Growth inhibition of human SK-MEL-28 cells after 48 hrs by sulforhodamine B assay; conditions: SK-MEL-28, 48 h; for CC50: read-out: LC50 (the source's name)
[30] = test system: KM12; assay: Growth inhibition of human KM12 cells assessed as cell growth at 10 uM after 48 hrs by sulforhodamine B assay relative to control; conditions: KM12, 48 h, read-out: Activity
[31] = test system: NCI-H460; assay: Growth inhibition of human NCI-H460 cells after 48 hrs by sulforhodamine B assay; conditions: NCI-H460, 48 h
[32] = test system: HL-60(TB); assay: Growth inhibition of human HL-60(TB) cells assessed as cell growth at 10 uM after 48 hrs by sulforhodamine B assay relative to control; conditions: HL-60, 48 h, read-out: Activity
[33] = test system: TK-10; assay: Growth inhibition of human TK10 cells assessed as cell growth at 10 uM after 48 hrs by sulforhodamine B assay relative to control; conditions: TK-10, 48 h, read-out: Activity

## CCCCN(CCCC)CCCNc1nc2c(c(=N)n1-c1ccccc1)c(=S)n(-c1ccccc1)c(=S)n2-c1ccccc1
[1]
  growth at 10 µM: -86.5%
[2]
  growth at 10 µM: -90.6%
[3]
  growth at 10 µM: -100%
[4]
  growth at 10 µM: -99.5%
[5]
  GI50: 1.1 µM
  TGI: 2.4 µM
  CC50: 5.2 µM
[6]
  growth at 10 µM: -100%
[7]
  GI50: 1.2 µM
  LC50: 5.4 µM
  TGI: 2.6 µM
[8]
  growth at 10 µM: -89.1%
[9]
  GI50: 0.4 µM
  TGI: 1.9 µM
  CC50: 4.7 µM
[10]
  GI50: 0.2 µM
  TGI: 0.4 µM
  CC50: 0.8 µM
[11]
  GI50: 0.5 µM
  LC50: 4.1 µM
  TGI: 1.6 µM
[12]
  GI50: 0.2 µM
  LC50 (concentration killing 50% of cells): 3.5 µM
  TGI: 0.8 µM
[13]
  growth at 10 µM: -82.5%
[14]
  GI50: 0.3 µM
[15]
  GI50: 1.5 µM
  TGI: 3.2 µM
  CC50: 6.7 µM
[16]
  growth at 10 µM: -64.6%
[17]
  GI50: 1.1 µM
  TGI: 2.3 µM
  CC50: 4.8 µM
[18]
  growth at 10 µM: -80.9%
[19]
  growth at 10 µM: -95.7%
[20]
  GI50: 0.3 µM
  LC50: 3.4 µM
  TGI: 1.1 µM
[21]
  GI50: 1.2 µM
  TGI: 2.7 µM
  CC50: 5.7 µM
[22]
  growth at 10 µM: -100%
[23]
  growth at 10 µM: -89.9%
[24]
  growth at 10 µM: -99.4%
[25]
  GI50: 1.4 µM
  TGI: 3.2 µM
  CC50: 7.4 µM
[26]
  GI50: 1.7 µM
  LC50: 6.9 µM
  TGI: 3.5 µM
[27]
  GI50: 0.4 µM
  LC50: 4.1 µM
  TGI: 1.6 µM
[28]
  GI50: 0.8 µM
  LC50: 4.6 µM
  TGI: 2.1 µM
[29]
  GI50: 0.2 µM
  TGI: 0.3 µM
  CC50: 0.7 µM
[30]
  growth at 10 µM: -100%
[31]
  GI50: 0.4 µM
  LC50: 4 µM
  TGI: 1.6 µM
[32]
  growth at 10 µM: -74.8%
[33]
  growth at 10 µM: -89.6%

## CN(C)CCNc1nc2c(c(=N)n1-c1ccccc1)c(=S)n(-c1ccccc1)c(=S)n2-c1ccccc1
[1]
  growth at 10 µM: 76.3%
[2]
  growth at 10 µM: 4.45%
[3]
  growth at 10 µM: -48.7%
[4]
  growth at 10 µM: 6.19%
[5]
  GI50: 2.4 µM
  TGI: 6.8 µM
  CC50: 28.1 µM
[6]
  growth at 10 µM: 45%
[7]
  GI50: 2.9 µM
  LC50: 55.6 µM
  TGI: 10.1 µM
[8]
  growth at 10 µM: -13%
[9]
  GI50: 12.1 µM
  TGI: 32.2 µM
  CC50: 85.8 µM
[10]
  GI50: 1.8 µM
  TGI: 4.3 µM
  CC50: 89.1 µM
[11]
  GI50: 3.2 µM
  LC50: 34.1 µM
  TGI: 11.3 µM
[12]
  GI50: 1.8 µM
  LC50 (concentration killing 50% of cells): 60.1 µM
  TGI: 10.3 µM
[13]
  growth at 10 µM: 82.3%
[14]
  GI50: 1.8 µM
  LC50: 17.2 µM
  TGI: 4.7 µM
[15]
  GI50: 5.3 µM
  TGI: 21.3 µM
  CC50: 62.1 µM
[16]
  growth at 10 µM: 12.3%
[17]
  GI50: 5.3 µM
  TGI: 18.8 µM
  CC50: 48.8 µM
[18]
  growth at 10 µM: 3.1%
[19]
  growth at 10 µM: 3.8%
[20]
  GI50: 1.4 µM
  LC50: 17.7 µM
  TGI: 4.5 µM
[21]
  GI50: 1.8 µM
  TGI: 3.5 µM
  CC50: 7 µM
[22]
  growth at 10 µM: -100%
[23]
  growth at 10 µM: -34.6%
[24]
  growth at 10 µM: -90.3%
[25]
  GI50: 6.2 µM
  TGI: 20.7 µM
  CC50: 53.8 µM
[26]
  GI50: 1.7 µM
  LC50: 6.7 µM
  TGI: 3.4 µM
[27]
  GI50: 2.4 µM
  LC50: 31.9 µM
  TGI: 7.5 µM
[28]
  GI50: 3 µM
  LC50: 45.4 µM
  TGI: 12.5 µM
[29]
  GI50: 0.6 µM
  TGI: 2.1 µM
  CC50: 5.8 µM
[30]
  growth at 10 µM: 0.2%
[31]
  GI50: 3.2 µM
  LC50: 61.2 µM
  TGI: 11.8 µM
[32]
  growth at 10 µM: 36.6%
[33]
  growth at 10 µM: 47.7%
